Test results published in patent US5686424A, “2-oxoethyl derivatives as immunosuppressants” (Miles Inc., priority 1995, dated 1997).
Counter-ions that a name gives are not always drawn.

How the values were obtained:
FKBP = FKBP (Homo sapiens, UniProt P62942); assay: PPIase Inhibition Assay; assay type: biochemical; details: concentration of inhibitor required for 50% inhibition of enzyme activity; FKBP, substrate Succinyl-Ala-Phe-Pro-Phe-para-nitroanilide; TABLE I
Outline: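 Chymotrypsin-coupled isomerization of Succinyl-Ala-Phe-Pro-Phe-para-nitroanilide by FKBP in ice-cold 25 mM HEPES pH 7.8, 100 mM NaCl, compound in DMSO. A390 followed 90 sec; first-order rate constants give % activity remaining after subtracting uncatalyzed rate; IC50 by linear regression of V-/V+ versus concentration.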

NF-AT = NF-AT Inhibition Assay Directed β-Galactosidase Expression in FGL-5 cells; assay type: cell-based; details: 50% inhibition of NF-AT directed β-galactosidase activity in FGL-5 cells stimulated with phorbol dibutyrate and ionomycin; TABLE 3
Procedure: 3) NF-AT Assay Stimulation of T-cells leads to the appearance of several transcription factors, including one designated "NF-AT". These factors are involved in regulation of gene expression required for immunologic activation. Some of these transcription factors appear to have functions in a wide variety of cell types. By contrast, NF-AT is found primarily in T-cells and its role is restricted to early gene activation. […] Inhibition of NF-AT activity is measured using FGL-5 cells. FGL-5 is a cloned line of stably transfected Jurkat T-cells that contain two construct in which three tandem copies of the NF-AT DNA binding site direct transcription of both murine CD8 and the lacZ gene, encoding β-galactosidase ([…] et al., 1990, Genes & Development 4:1823). When these cells are stimulated with phorbol esters which activate protein kinase C and calcium ionophore to raise the intracellular calcium concentration, transcriptionally active NF-AT is produced. In T-cells, this normally leads to the expression of IL-2, T-cell growth factor. However, in FGL-5 cells NF-AT activation leads to the production of β-galactosidase which can be detected using an appropriate substrate. […] NF-AT Inhibition Assay Directed β-Galactosidase Expression This assay was performed essentially as described (Bierer et al., 1990, Proc. Natl. Acad. Sci. 87:9231). […] The assays were done with exponentially growing cells whose density was not greater than 0.5 million cells/ml. The cells were resuspended to 3 million cells/ml in medium and 0.1 ml was added to wells of a 96-well plate. The compounds of the present invention were dissolved in either ethanol or dimethylsulfoxide at 10 mM and […] of various dilutions in medium were added to cells in duplicate wells. Treatment controls consisted of duplicate wells containing 0.5 ml/well of either medium, ethanol or dimethylsulfoxide. The ethanol and dimethyl sulfoxide were at the same concentration as was used for the compounds. […] Phorbol dibutyrate (Sigma) and Ionomycin (Calbiochem) were dissolved at 50 μg/ml and 2 mM, respectively and stored at -70° C. […] For unstimulated cell controls, 0.5 ml/well of medium was added to duplicate wells. The plates were incubated overnight (16-18 hours) at 37° C. in a humidified atmosphere of 5% CO2 and air. β-galactosidase activity was measured as the fluorescence generated by the cleavage of 4-methyl umbelliferyl-β-D-galactoside (Sigma) at the β-galactoside bond. After overnight incubation, the cells were centrifuged at 500×g for 3 minutes in the 96-well plates and washed 3 times with PBS. […] The percent inhibition by each concentration of the compounds was calculated as: […]

human T-cells = assay: Suppression of Human T-Cell Proliferation Assay (PHA-stimulated, [3H]-thymidine incorporation); assay type: cell-based; details: concentration inhibiting [3H]-thymidine incorporation of PHA-stimulated T-cells by 50%, 72 hours; TABLE 2; read-out: IC50
Outline: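 SRBC-rosette-purified human peripheral T-cells stimulated with PHA-M (40 μg/ml stock) and compound dilutions, in duplicate, for 72 h at 37° C. Proliferation measured by [3H]-thymidine incorporation during the final 6 h, read by liquid scintillation counting.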

Sequence of FKBP (P62942 whole entry): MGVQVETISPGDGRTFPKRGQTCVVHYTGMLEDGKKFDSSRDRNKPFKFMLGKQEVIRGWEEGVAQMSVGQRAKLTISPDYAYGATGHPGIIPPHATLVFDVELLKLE

COc1cccc(CNC(=O)[C@@H]2CCCN2CC(=O)c2cc(OC)c(OC)c(OC)c2)c1 [Example 133, L-Proline, 1-[2-(3,4,5-Trimethoxyphenyl)-2-Oxoethyl] 3-Methoxybenzamide Hydrochloride]
IC50 (FKBP): > 5 µM
IC50 (NF-AT): > 33 µM
IC50 (human T-cells): 22 µM

O=C(CNC(=O)[C@@H]1CCCN1CC(=O)C12CC3CC(CC(C3)C1)C2)NCc1ccccc1 [Example 55, Glycine, N-[1-(2-Adamantan-1-yl-2-Oxoethyl)-L-Prolyl] Benzylamide]
IC50 (FKBP): 5.1 µM
IC50 (NF-AT): 44 µM
IC50 (human T-cells): 13 µM

COc1cc(C(=O)CN2CCC[C@H]2C(=O)NCC(=O)c2ccccc2)cc(OC)c1OC [Example 127, L-Proline, 1-[2-(3,4,5-Trimethoxyphenyl)-2-Oxoethyl] 2-Phenyl-2-oxoethylamide]
IC50 (FKBP): > 5 µM
IC50 (NF-AT): > 15 µM
IC50 (human T-cells): > 15 µM

CC[C@H](C)[C@H](NC(=O)[C@@H]1CCCN1CC(=O)C1(c2ccc(Cl)cc2)CCCCC1)C(=O)NCc1ccccc1 [Example 114, L-Isoleucine, N-[1-(2-(1-(4-Chlorophenyl)cyclohexyl)-2-Oxoethyl)-L-Prolyl] Benzylamide]
IC50 (FKBP): < 5 µM
IC50 (NF-AT): 10 µM
IC50 (human T-cells): 7 µM

CC[C@H](C)[C@H](NC(=O)[C@@H]1CCCN1CC(=O)c1ccc(OC(=O)c2ccccc2)cc1)C(=O)NCc1ccccc1 [Example 102, L-Isoleucine, N-[1-(2-(4-Benzoyloxyphenyl)-2-Oxoethyl)-L-Prolyl] Benzylamide]
IC50 (FKBP): 5 µM
IC50 (NF-AT): > 15 µM
IC50 (human T-cells): > 15 µM

COc1cc(C(=O)CN2CCC[C@H]2C(=O)N[C@H](C)c2ccccc2)cc(OC)c1OC [Example 137, L-Proline, 1-[2-(3,4,5-Trimethoxyphenyl)-2-Oxoethyl] (R)-α-methylbenzylamide Hydrochloride]
IC50 (FKBP): > 5 µM
IC50 (NF-AT): > 33 µM
IC50 (human T-cells): 16 µM

CC[C@H](C)[C@H](NC(=O)[C@@H]1CCCN1CC(=O)c1ccc(OC)c(OC)c1OC)C(=O)NCc1ccccc1 [Example 115, L-Isoleucine, N-[1-(2-(2,3,4-Trimethoxyphenyl)-2-Oxoethyl)-L-Prolyl] Benzylamide]
IC50 (FKBP): > 5 µM
IC50 (NF-AT): > 15 µM
IC50 (human T-cells): 7 µM

COc1cc(C(=O)CN2CCC[C@H]2C(=O)NC(Cc2ccccc2)c2ccccc2)cc(OC)c1OC (stereo partly drawn) [Example 144, L-Proline, 1-[2-(3,4,5-Trimethoxyphenyl)-2-Oxoethyl] 1,2-DiphenylethylamideHydrochloride]
IC50 (FKBP): > 5 µM
IC50 (NF-AT): > 33 µM
IC50 (human T-cells): 19 µM

COc1cc(C(=O)CN2CCC[C@H]2C(=O)NC(C)(C)C)cc(OC)c1OC [Example 143, L-Proline, 1-[2-(3,4,5-Trimethoxyphenyl)-2-Oxoethyl] tert-Butylamide Hydrochloride]
IC50 (FKBP): > 5 µM
IC50 (NF-AT): > 33 µM
IC50 (human T-cells): 3 µM

CC(C)[C@H](NC(=O)[C@@H]1CCCN1CC(=O)C12CC3CC(CC(C3)C1)C2)C(=O)NCc1ccccc1 [Example 56, L-Valine, N-[1-(2-Adamantan-1-yl-2-Oxoethyl)-L-Prolyl] Benzylamide]
IC50 (FKBP): 1.2 µM
IC50 (NF-AT): 73 µM
IC50 (human T-cells): 8 µM

COc1cc(C(=O)CN2CCC[C@H]2C(=O)N(C)CCc2ccccc2)cc(OC)c1OC [Example 135, L-Proline, 1-[2-(3,4,5-Trimethoxyphenyl)-2-Oxoethyl] N-MethylphenethylamideHydrochloride]
IC50 (FKBP): > 5 µM
IC50 (NF-AT): > 33 µM
IC50 (human T-cells): 14 µM

CC[C@H](C)[C@H](NC(=O)[C@@H]1CCCN1CC(=O)OCC1(c2ccccc2)CCCCC1)C(=O)NCc1ccccc1 [Example 87, L-Isoleucine, N-[1-(2-(1-Phenyl-1-Cyclohexylmethoxy)-2-Oxoethyl)-L-Prolyl] Benzylamide]
IC50 (FKBP): > 5 µM
IC50 (NF-AT): 6 µM
IC50 (human T-cells): 8 µM

NC(=O)C[C@H](NC(=O)[C@@H]1CCCN1CC(=O)C12CC3CC(CC(C3)C1)C2)C(=O)NCc1ccccc1 [Example 61, L-Asparagine, N-[1-(2-Adamantan-1-yl-2-Oxoethyl)-L-Prolyl] Benzylamide]
IC50 (FKBP): < 5 µM
IC50 (NF-AT): > 100 µM
IC50 (human T-cells): 17 µM

C=CCOC(=O)Nc1ccc(CCCOC(=O)[C@@H]2CCCN2CC(=O)C23CC4CC(CC(C4)C2)C3)cc1 [Example 160, L-Proline, 1-[2-Adamantan-1-yl-2-Oxoethyl] 3-(4-(N-Carboallyloxy)aminophenyl)propyl Ester Hydrochloride]
IC50 (FKBP): > 5 µM
IC50 (NF-AT): > 15 µM
IC50 (human T-cells): > 15 µM

COc1cc(C(=O)CN2CCC[C@H]2C(=O)N[C@H](C)c2cccc3ccccc23)cc(OC)c1OC [Example 140, L-Proline, 1-[2-(3,4,5-Trimethoxyphenyl)-2-Oxoethyl] 1-(R)-(1-naphthyl)ethylamide Hydrochloride]
IC50 (FKBP): > 5 µM
IC50 (NF-AT): > 33 µM
IC50 (human T-cells): 10 µM

CC[C@H](C)[C@H](NC(=O)[C@@H]1CCCN1CC(=O)C12CC3CC(CC(C3)C1)C2)C(=O)NCc1ccccn1 [Example 68, L-Isoleucine, N-[1-(2-Adamantan-1-yl-2-Oxoethyl)-L-Prolyl] Pyridin-2-ylmethylamide]
IC50 (FKBP): 0.4 µM
IC50 (NF-AT): 60 µM
IC50 (human T-cells): 16 µM

COc1cc(C(=O)CN2CCCC[C@H]2C(=O)NCC2CCCO2)cc(OC)c1OC (stereo partly drawn) [Example 148, L-Homoproline, 1-[2-(3,4,5-Trimethoxyphenyl)-2-Oxoethyl] tetrahydrofurfurylamide]
IC50 (FKBP): > 5 µM
IC50 (NF-AT): > 15 µM
IC50 (human T-cells): > 15 µM

CC(C)C[C@H](NC(=O)[C@@H]1CCCN1CC(=O)C12CC3CC(CC(C3)C1)C2)C(=O)NCc1ccccc1 [Example 57, L-Leucine, N-[1-(2-Adamantan-1-yl-2-Oxoethyl)-L-Prolyl] Benzylamide]
IC50 (FKBP): 0.22 µM
IC50 (NF-AT): > 100 µM
IC50 (human T-cells): 8 µM

CC[C@H](C)[C@H](NC(=O)[C@@H]1CCCN1CC(=O)c1cc(OC)c(OC)c(OC)c1)C(=O)NCc1ccccc1 [Example 98, L-Isoleucine, N-[1-(2-(3,4,5-Trimethoxyphenyl)-2-Oxoethyl)-L-Prolyl] Benzylamide]
IC50 (FKBP): < 5 µM
IC50 (NF-AT): > 33 µM
IC50 (human T-cells): 7 µM

COc1cc(C(=O)CN2CCC[C@H]2C(=O)NCCc2ccc(NC(=O)OCc3ccccc3)cc2)cc(OC)c1OC [Example 157, L-Proline, 1-[2-(3,4,5-Trimethoxyphenyl)-2-Oxoethyl] 2-(4-(N-Carbobenzyloxy)aminophenyl)ethylamide]
IC50 (FKBP): > 5 µM
IC50 (NF-AT): > 15 µM
IC50 (human T-cells): 5 µM

CC[C@H](C)[C@H](NC(=O)[C@@H]1CCCN1CC(=O)C1CCc2ccccc2C1)C(=O)NCc1ccccc1 (stereo partly drawn) [Example 43, L-Isoleuclne, N-[1-(2-(1,2,3,4-tetrahydro-Napththalen-2-yl)-2-Oxoethyl)-L-Prolyl] Benzylamide]
IC50 (FKBP): < 5 µM
IC50 (NF-AT): 14 µM
IC50 (human T-cells): 16 µM

COc1cc(C(=O)CN2CCC[C@H]2C(=O)NCc2cccc3ccccc23)cc(OC)c1OC [Example 129, L-Proline, 1-[2-(3,4,5-Trimethoxyphenyl)-2-Oxoethyl] Naphthalen-1-ylmethylamide]
IC50 (FKBP): > 5 µM
IC50 (NF-AT): > 15 µM
IC50 (human T-cells): 10 µM

COc1cc(C(=O)CN2CCC[C@H]2C(=O)NCC2CCCCC2)cc(OC)c1OC [Example 141, L-Proline, 1-[2-(3,4,5-Trimethoxylphenyl)-2-Oxoethyl] Cyclohexylmethylamide]
IC50 (FKBP): > 5 µM
IC50 (NF-AT): > 33 µM
IC50 (human T-cells): 7 µM

COc1cc(C(=O)CN2CCC[C@H]2C(=O)NCC2CCCO2)cc(OC)c1OC (stereo partly drawn) [Example 128, L-Proline, 1-[2-(3,4,5-Trimethoxyphenyl)-2-Oxoethyl] Tetrahydrofurfurylamide]
IC50 (FKBP): > 5 µM
IC50 (NF-AT): > 15 µM
IC50 (human T-cells): 4 µM
